Molecular target: T1, phosphoglycerate kinase 1 (hPGK1) (Homo sapiens, UniProt P00558)
T1 sequence (P00558 2-417): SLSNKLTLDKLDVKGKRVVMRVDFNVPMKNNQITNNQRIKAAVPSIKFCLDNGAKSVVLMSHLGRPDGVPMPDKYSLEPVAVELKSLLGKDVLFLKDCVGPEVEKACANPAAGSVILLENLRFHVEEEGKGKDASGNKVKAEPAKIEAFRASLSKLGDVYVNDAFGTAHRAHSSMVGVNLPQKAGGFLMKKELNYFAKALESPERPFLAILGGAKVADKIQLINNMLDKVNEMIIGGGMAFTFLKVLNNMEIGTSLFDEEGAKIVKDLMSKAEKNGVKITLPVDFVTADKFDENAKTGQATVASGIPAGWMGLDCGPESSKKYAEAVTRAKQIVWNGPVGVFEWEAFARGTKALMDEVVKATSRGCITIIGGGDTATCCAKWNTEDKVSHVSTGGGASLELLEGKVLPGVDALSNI
Assay: co-crystal structure hPGK1-3PG-TZ at […] Å
Format: binding

COc1cc2nc(N3CCN(C(=O)C4CCCO4)CC3)nc(N)c2cc1OC (racemic) [TZ, terazosin]
co-crystal structure hPGK1-3PG-TZ at 2.1 Å: we obtained the ternary co-crystallization complexes for both the mouse and the human Pgk1-3PG-TZ

Source: PMC4412158 (Nature chemical biology, 2014)
